Literature values, collected in patent US20070207952A1, “Long Acting Biologically Active Conjugates” (priority 2003, published 2007).
[ ]: non-standard residue; d: D form. The star is where a group is joined. Sta = CC(C)C[C@H](N)[C@@H](O)CC(=O)O; Boc = CC(C)(C)OC(=O)*

Molecular target: T1, Human plasma renin (Homo sapiens, UniProt P00797)
T1 construct: plasma renin
T1 sequence (P00797 67-406): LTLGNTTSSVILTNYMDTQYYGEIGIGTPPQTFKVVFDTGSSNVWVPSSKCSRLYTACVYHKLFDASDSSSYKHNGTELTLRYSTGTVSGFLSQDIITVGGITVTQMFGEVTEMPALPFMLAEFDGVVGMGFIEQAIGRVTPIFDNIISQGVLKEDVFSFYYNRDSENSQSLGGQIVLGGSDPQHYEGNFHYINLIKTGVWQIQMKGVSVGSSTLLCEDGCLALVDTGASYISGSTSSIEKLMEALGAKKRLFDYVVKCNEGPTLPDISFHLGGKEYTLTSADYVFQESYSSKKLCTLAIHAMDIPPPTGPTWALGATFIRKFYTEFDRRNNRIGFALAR
Details: literature values; cited from earlier work

Row | Substance | IC50 [nM]
1 | Ac-(HCO-Trp)-Pro-Phe-His-Sta---Ile-NH2 | 0.1
2 | Ac-HPFV[Sta]LF-NH2 | 32
3 | Ac-His-Pro-Phe-His-ACHPA---Leu-Phe-NH2 | 0.5
4 | Ac-WPFH[Sta]I-NH2 | 16
5 | Boc-FH[Sta]A[Sta]-OMe | 27
6 | Boc-His-Pro-Phe-His-Leu(CH(OH)CH2)Val-Ile-His-OH | 0.7
